In patent US20250179024A1, “AMYLOID AND ASSOCIATED PATHOLOGY MODULATORS AND METHODS THEREOF” (Jawaharlal Nehru Centre for Advanced Scientific Research, priority 2022, published 2025):

What was measured:
Assay type in all cases: cell-based
SH-SY5Y cells [1] = assay: Apoptosis assay by nuclear staining and morphology; conditions: Aβ 10 μM, compound 20 µM, 24 h
Procedure: The apoptosis induced by Aβ and rescue by NMIs (M3) was assessed through nuclear staining and morphology analysis. Apoptosis induces DNA damage and morphological change in the nucleus. Based on the nuclear features the extent of apoptosis was assessed as percentage apoptotic cells. SH-SY5Y cells were cultured and treated with Aβ (10 μM) and with NMIs (M3) (20 μM) to quantify the apoptosis and rescue by NMIs (M3). After 24 h the cells were washed with PBS and fixed with 4% paraformaldehyde and then with PBS for 5 min thrice and the nucleus was stained with DAPI (1 μM) for 10 min, washed thrice with PBS and imaged using fluorescence microscope to visualize the nuclear morphology. […] Total of more than 300 cells were counted to calculated the percentage of apoptosis.
Modulation of apoptosis by M3 was quantified by apoptosis assay through nuclear staining and morphological analysis. Apoptotic signals induced nuclear DNA damage show abnormal nuclear features, which has been used to evaluate and quantify the extent of apoptosis. Neuronal cells treated with Aβ (10 μM) alone and with […] for 24 h were stained for the nucleus and analysed for apoptotic morphological features.

SH-SY5Y cells [2] = assay: MTT cytotoxicity assay; conditions: 24 h, up to 200 μM
Procedure: The SH-SY5Y cells were seeded onto 96 well plates at cell density of 25,000 cells per well and incubated. After 24 h cells were treated with different concentration of compounds (10, 20, 50, 100 and 200 μM) and incubated. After 24 h MTT (5 mg/mL) was added to the cells and incubated for 3 h, removed media and DMSO/Methanol (1:1) solution added to dissolve formazan crystals. The absorbance was recorded at 570 nm and the percentage cell viability was calculated with respect to control cells treated with vehicle (DMSO).
NMIs modulated metal-independent and dependent Aβ aggregation, reduced ROS in vitro and in cellulo, and rescue cells from oxidative stress. The biocompatibility, the cytotoxicity of compounds of the present disclosure to neuronal cells were evaluated by MTT assay. SH-SY5Y cells were treated with different concentrations of modulators (NMIs) for 24 h and performed MTT assay to determine the cell viability.

C6 microglial cells = assay: Bio-AFM study of microglial activation; conditions: Aβ 5 μM, compound 10 μM
Procedure: Microglia activation and its alleviation was studied by Bio-AFM technique combining the indirect immunofluorescence by confocal microscopy and cellular mechanical properties characterization by AFM. C6 microglia was used as model cells and Aβ as pathological stimuli for the study. C6 cells were cultured in glass bottom confocal dishes to attain 70% confluence. The cells were primed to activation by using 500 ng/mL of LPS in low serum media (2.5% FBS). Then microglial cells were treated with 5 μM Aβ42 alone and with NMIs (M3) for 18 h. Then the cells were fixed and probed for Iba1 marker by indirect immunofluorescence, counter stained with Phalloidin rhodamine (200 nM) for actin labeling to visualize the actin distribution and DAPI (1 μM) for labeling the nucleus. The samples were washed thrice using dPBS and subjected to Bio-AFM imaging.
The Bio-AFM studies were performed in Bioscope Resolve AFM integrated with Olympus Fluoview-3000 Confocal laser scanning microscope (Bruker). The original confocal stage was removed and replaced with the Bruker Bio-AFM stage. For the confocal images aspect ratio was fixed to 4:3 with channel size of 640×480 and 3-point calibration was done to obtain proper overlay and pixel scaling was optimized by setting 0.375 μ/pixel. Region of interest was selected in the confocal using 60× oil immersion objective (Olympus plan Apo N) and on selected region AFM probe was landed using MIROVIEW window. Peak Force Quantitative Nanomechanical Mapping (PF-QNM) in Fluid mode was used for imaging the cells wherein this mode works based on Peakforce tapping principle. From this mode, height, log DMT and adhesion force of the samples was recorded. The log DMT was calculated using Derjaguin, Muller, Toropov (DMT) model using the formula given below. Studies were performed using MLCT BIO-F probe made up of non-conductive silicon nitride, coated with reflective Au with spring constant of 0.60 N/m and tip radius of 20 nm. Images were recorded with scanning speed of 0.5 Hz with 512 samples per line. The confocal images were recorded in DAPI, Alex488 and rhodamine channels. AFM data was analyzed using NanoScope analysis software (1.9 version) and confocal images were analyzed using Image J. Ftip=4/3E*√Rd3+Fadh, where Ftip=Force on tip, Fadh=Adhesion force, R=Tip radius and d=Tip sample separation.
C6 microglial cells were used as model and Aβ as stimuli for microglial activation that mimics AD conditions. The C6 cells were primed with LPS (500 ng/mL) for 4 h followed by treatment with Aβ (5 μM) alone and with M3 (10 μM) for 18 h. The cells were stained for Iba1, actin (phalloidin-rhodamine) and nucleus (DAPI), and the samples were subjected to confocal and AFM imaging using integrated Bio-AFM instrument.

With `O=C1c2cccc3c(N(Cc4ccccn4)Cc4ccccn4)ccc(c23)C(=O)N1CCc1ccc(O)c(O)c1` [M3, 6-(bis(pyridin-2-ylmethyl)amino)-2-(3,4-dihydroxyphenethyl)-1H-benzo[de]isoquinoline-1,3(2H)-dione] the nuclear morphology (SH-SY5Y cells [1]; DAPI) was “normal nuclear structures”, the “apoptosis of neuronal cells” value (SH-SY5Y cells [1]; Aβ alone ~35%, control ~8.5%) was 22.5% and the cytotoxicity (SH-SY5Y cells [2]) was “minimal toxicity”. The “log DMT modulus (cellular stiffness)” value (C6 microglial cells; Aβ treated ~2.06±0.20 Pa, control ~1.38±0.19 Pa) was about 1.32±0.15, the height of microglial cells (C6 microglial cells; activated ~5.13±0.29, control ~2.03±0.18) was about 3.03 µm and the adhesive force (C6 microglial cells; activated ~5.30±0.24, control 3.21±0.23) was about 3.57±0.25 nN. The “Iba1 level compared to Aβ treated cells” value (C6 microglial cells; LPS 500 ng/mL, 18 h) was “reduced significantly”, the “Iba1 localisation with actin” value (C6 microglial cells; LPS 500 ng/mL, 18 h) was “reduced the Iba1 localisation with actin” and the “actin redistribution to the periphery of Aβ treated microglial cells” value (C6 microglial cells; LPS 500 ng/mL, 18 h) was “reduced”.
